Values joined by “and” are separate entries in the source; they are usually repeats but may differ in a detail not shown here. Equal entries are not always repeated. “Also recorded” adds a separate entry of the source.
What was measured:
Assay type in all cases: binding
[1] = molecular target: T1, TRIP12 WWE domain (isoform 2) (Homo sapiens, UniProt Q14669); assay: 15N-HSQC NMR Kd titration, TRIP12 WWE domain; conditions: 15N-HSQC-NMR titration, mean of selected cross peaks ± SD
T1 construct: TRIP12-2 (Uniprot ID: Q14669, residues 759–847); His6-TEV site (N, cleaved yes); made in house; host or cells: E. coli BL21 (DE3) pRARE2
T1 sequence (Q14669 with tags, fused parts or gaps): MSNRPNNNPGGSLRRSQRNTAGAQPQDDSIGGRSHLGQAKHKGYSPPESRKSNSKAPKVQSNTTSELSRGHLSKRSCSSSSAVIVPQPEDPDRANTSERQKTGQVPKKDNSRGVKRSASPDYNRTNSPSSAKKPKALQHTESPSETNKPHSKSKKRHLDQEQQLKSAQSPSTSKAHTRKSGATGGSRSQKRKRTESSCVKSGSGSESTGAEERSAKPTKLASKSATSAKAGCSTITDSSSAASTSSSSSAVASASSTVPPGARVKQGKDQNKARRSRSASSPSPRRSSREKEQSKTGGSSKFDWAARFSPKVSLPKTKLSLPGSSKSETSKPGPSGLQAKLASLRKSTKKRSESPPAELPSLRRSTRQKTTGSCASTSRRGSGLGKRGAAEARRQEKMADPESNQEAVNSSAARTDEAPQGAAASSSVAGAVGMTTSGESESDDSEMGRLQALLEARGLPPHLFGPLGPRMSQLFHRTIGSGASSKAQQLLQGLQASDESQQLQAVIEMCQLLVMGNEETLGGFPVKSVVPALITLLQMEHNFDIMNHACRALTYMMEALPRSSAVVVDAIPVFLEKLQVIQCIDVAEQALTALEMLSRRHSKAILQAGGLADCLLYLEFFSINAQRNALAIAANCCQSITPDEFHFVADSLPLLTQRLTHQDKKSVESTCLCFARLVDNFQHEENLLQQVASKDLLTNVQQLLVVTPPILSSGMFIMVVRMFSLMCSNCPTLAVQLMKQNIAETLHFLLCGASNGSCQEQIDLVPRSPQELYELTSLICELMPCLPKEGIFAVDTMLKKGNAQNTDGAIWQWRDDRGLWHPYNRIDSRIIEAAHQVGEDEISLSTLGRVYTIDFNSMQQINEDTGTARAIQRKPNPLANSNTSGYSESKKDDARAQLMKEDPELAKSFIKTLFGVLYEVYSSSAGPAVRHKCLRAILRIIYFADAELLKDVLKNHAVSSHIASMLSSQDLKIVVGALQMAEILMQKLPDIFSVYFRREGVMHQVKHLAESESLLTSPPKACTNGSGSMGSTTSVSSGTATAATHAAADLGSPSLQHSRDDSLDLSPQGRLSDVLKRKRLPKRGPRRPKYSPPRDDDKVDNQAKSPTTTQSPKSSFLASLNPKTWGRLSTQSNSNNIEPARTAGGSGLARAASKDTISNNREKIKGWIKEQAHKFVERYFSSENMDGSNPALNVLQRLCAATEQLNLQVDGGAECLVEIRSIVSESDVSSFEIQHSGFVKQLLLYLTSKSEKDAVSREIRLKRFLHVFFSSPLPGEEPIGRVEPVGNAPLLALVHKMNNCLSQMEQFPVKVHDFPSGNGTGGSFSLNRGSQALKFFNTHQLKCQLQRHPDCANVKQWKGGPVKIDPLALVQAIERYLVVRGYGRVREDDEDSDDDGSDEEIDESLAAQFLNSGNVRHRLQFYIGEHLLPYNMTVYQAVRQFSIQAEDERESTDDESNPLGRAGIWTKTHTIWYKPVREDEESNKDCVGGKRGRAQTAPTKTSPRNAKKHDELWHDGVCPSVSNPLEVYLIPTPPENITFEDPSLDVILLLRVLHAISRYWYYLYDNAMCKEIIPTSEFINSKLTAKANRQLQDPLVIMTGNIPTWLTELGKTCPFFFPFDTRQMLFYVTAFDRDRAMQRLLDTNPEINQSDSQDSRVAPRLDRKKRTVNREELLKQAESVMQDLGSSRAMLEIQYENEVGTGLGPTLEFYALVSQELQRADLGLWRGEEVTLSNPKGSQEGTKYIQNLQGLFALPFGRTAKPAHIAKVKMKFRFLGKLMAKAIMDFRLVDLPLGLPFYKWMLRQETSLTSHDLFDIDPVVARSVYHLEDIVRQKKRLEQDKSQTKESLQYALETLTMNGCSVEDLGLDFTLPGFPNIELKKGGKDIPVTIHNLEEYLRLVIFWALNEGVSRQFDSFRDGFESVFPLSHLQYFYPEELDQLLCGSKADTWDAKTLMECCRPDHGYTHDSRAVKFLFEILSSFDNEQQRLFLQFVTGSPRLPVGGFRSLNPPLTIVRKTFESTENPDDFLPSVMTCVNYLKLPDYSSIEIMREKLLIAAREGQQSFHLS
Text: (§1) Protein-observed NMR using isotopically labeled proteins has emerged as one of the most sensitive and widely employed methods for fragment-based screening. Our objective was to generate ^15N-labeled proteins of WWE domain family members, thereby enabling ^15N-HSQC NMR studies. This approach provides a protein-based fragment screening assay to identify and orthogonally validate binders for the WWE domain family proteins. We conducted NMR-based Kd determination assays for HUWE1, DTX1, RNF146, TRIP12, and DTX2 (Fig. 2c–f, Fig. S3). The small size of the WWE domain constructs (10–20 kDa) yielded NMR spectra with well-resolved individual peaks when analyzed on a 600 MHz spectrometer. This facilitated the determination of Kd values for ligands in the fast-exchange regime by monitoring chemical shift perturbations in the ligand titration. […] The adenosine-based ligands were titrated in the range of 62.5 µM to 2 mM for each WWE domain protein. However, due to resource intensive preparation, iso-ADPr was only titrated up to 500 µM. We then plotted the Δδ chemical shifts and ligand concentrations to determine a saturation curve. For each Kd determination, the chemical shifts of at least two separate peaks were analyzed and reported as the mean with standard deviation (Table 1, Figs. S4–7).
(§2) Titration curves were calculated as previously described.

[2] = molecular target: T2, DTX2 WWE domain (Homo sapiens, UniProt Q86UW9); assay: 15N-HSQC NMR Kd titration, DTX2 WWE domains; conditions: 15N-HSQC-NMR titration, mean of selected cross peaks ± SD
T2 construct: DTX2 (Uniprot ID: Q86UW9, residues 3–189); His6-TEV site (N, cleaved yes); made in house; host or cells: E. coli BL21 (DE3) pRARE2
T2 sequence (Q86UW9 3-189): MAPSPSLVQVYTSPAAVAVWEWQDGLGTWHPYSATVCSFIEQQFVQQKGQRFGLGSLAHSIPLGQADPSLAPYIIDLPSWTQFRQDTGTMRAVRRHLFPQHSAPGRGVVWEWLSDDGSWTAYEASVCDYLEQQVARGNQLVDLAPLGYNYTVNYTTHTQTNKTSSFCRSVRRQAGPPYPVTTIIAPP
Text: as §1, §2

[3] = molecular target: T3, DTX1 WWE domain (Homo sapiens, UniProt Q86Y01); assay: 15N-HSQC NMR Kd titration, DTX1 WWE domains; conditions: 15N-HSQC-NMR titration, mean of selected cross peaks ± SD
T3 construct: DTX1 (Uniprot ID: Q86Y01, residues 21–184); His6-TEV site (N, cleaved yes); made in house; host or cells: E. coli BL21 (DE3) pRARE2
T3 sequence (Q86Y01 21-184): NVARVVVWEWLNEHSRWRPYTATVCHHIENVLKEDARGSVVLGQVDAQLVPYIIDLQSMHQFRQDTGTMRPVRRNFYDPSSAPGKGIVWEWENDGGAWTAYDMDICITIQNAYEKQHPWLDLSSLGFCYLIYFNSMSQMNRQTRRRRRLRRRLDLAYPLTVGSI
Text: as §1, §2

[4] = molecular target: T4, HUWE1 WWE domain (Homo sapiens, UniProt Q7Z6Z7); assay: 15N-HSQC NMR Kd titration, HUWE1 WWE domain; conditions: 15N-HSQC-NMR titration, mean of selected cross peaks ± SD
T4 construct: HUWE1 (Uniprot ID: Q7Z6Z7, residues 1611–1700); His6-TEV site (N, cleaved yes); made in house; host or cells: E. coli BL21 (DE3) pRARE2
T4 sequence (Q7Z6Z7 1611-1700): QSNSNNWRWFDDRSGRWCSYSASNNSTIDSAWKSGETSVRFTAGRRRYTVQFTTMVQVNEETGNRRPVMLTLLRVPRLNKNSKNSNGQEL
Text: as §1, §2
Compound hit confirmation was carried out in single compound samples using the same conditions and parameters as for compound mixtures.

[5] = molecular target: T5, RNF146 WWE domain (Homo sapiens, UniProt Q9NTX7); assay: 15N-HSQC NMR Kd titration, RNF146 WWE domain; conditions: 15N-HSQC-NMR titration, mean of selected cross peaks ± SD
T5 construct: RNF146 (Uniprot ID: Q9NTX7, residues 100-184); His6-TEV site (N, cleaved yes); made in house; host or cells: E. coli BL21 (DE3) pRARE2
T5 sequence (Q9NTX7 100-184): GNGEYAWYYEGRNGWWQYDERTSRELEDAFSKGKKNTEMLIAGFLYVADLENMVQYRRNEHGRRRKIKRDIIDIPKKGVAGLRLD

[6] = molecular target: T4, HUWE1 WWE domain; assay: 19F NMR displacement assay with 2F-ATP (1) reporter, HUWE1; conditions: 100 µM reporter, 0.5 µM protein, competitor up to 1 mM
[7] = molecular target: T2, DTX2 WWE domain; assay: 19F NMR displacement assay with 2F-ATP (1) reporter, DTX2; conditions: 100 µM reporter, 0.5 µM protein, competitor up to 1 mM

Kd [1]	Kd [2]	Kd [3]	Kd [4]	Kd [5]	displacement of 19F reporter 2F-ATP (1) [6]	displacement of 19F reporter 2F-ATP (1) [7]	SMILES
127 ± 9 µM	> 2000 µM	329 ± 115 µM	30 µM and 27 µM	49 ± 18 µM	–	–	Nc1nc(F)nc2c1ncn2[C@@H]1O[C@H](COP(=O)(O)OP(=O)(O)OP(=O)(O)O)[C@@H](O)[C@H]1O [2F-ATP 1]
125 ± 20 µM	455 ± 17 µM	550 ± 111 µM	15 ± 2 µM	114 ± 31 µM	–	–	Nc1ncnc2c1ncn2[C@@H]1O[C@H](COP(=O)(O)OP(=O)(O)OP(=O)(O)O)[C@@H](O)[C@H]1F [2’F-ATP 2]
316 ± 22 µM	802 ± 84 µM	659 ± 294 µM	59 ± 5 µM	–	increasing signal intensity	too weak for displacement	Nc1ncnc2c1ncn2[C@@H]1O[C@H](COP(=O)(O)OP(=O)(O)OP(=O)(O)O)[C@@H](O)[C@H]1O [ATP]
–	–	–	1760 µM	–	no displacement	–	O=C(O)CN1C(=O)c2ccccc2C1=O [compound (3), N-(Carboxymethyl)-phthalimide]

SMILES	Kd [1]	Kd [2]	Kd [3]	Kd [4]	Kd [5]	displacement of 19F reporter 2F-ATP (1) [6]	displacement of 19F reporter 2F-ATP (1) [7]
O=C(O)CN1C(=O)c2ccc(C(=O)O)cc2C1=O [compound (4)]	–	–	–	202 µM	–	clear dose-dependent displacement; also recorded: showed displacement	–
